Results reported in ChEMBL document CHEMBL1201862, “PubChem BioAssay data set” (2004).
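All cell lines were grown in 96-well plates and treated with compound for 48 hours. The concentration for 50% growth inhibition is given as GI50.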 Calls of active or inactive are those of the source. Cut-off read from the data, not from the text of the source: active = GI50 up to about 1.1 µM and inactive = higher.

Assays:
Experiment in all cases: NCI tumour cell line growth inhibition, 48 h
[1] = system: 786-0
[2] = system: CAKI-1
[3] = system: HOP-62
[4] = system: HOP-92
[5] = system: Hs-578T
[6] = system: KM12
[7] = system: Malme-3M
[8] = system: NCI-H226
[9] = system: NCI-H23
[10] = system: NCI/ADR-RES
[11] = system: OVCAR-4
[12] = system: OVCAR-5
[13] = system: OVCAR-8
[14] = system: RXF 393
[15] = system: SK-MEL-5
[16] = system: SK-OV-3
[17] = system: SN12C
[18] = system: U-251

| Compound | GI50 [1] | GI50 [2] | GI50 [3] | GI50 [4] | GI50 [5] | GI50 [6] | GI50 [7] | GI50 [8] | GI50 [9] | GI50 [10] | GI50 [11] | GI50 [12] | GI50 [13] | GI50 [14] | GI50 [15] | GI50 [16] | GI50 [17] | GI50 [18] |
| --- | --- | --- | --- | --- | --- | --- | --- | --- | --- | --- | --- | --- | --- | --- | --- | --- | --- | --- |
| COC(=O)c1c(O)ccc2c1c1cc3ccccc3c(O)c1n2Cc1ccccc1Cl | 22.3 µM (inactive) | 22.4 µM (inactive) | 26.1 µM (inactive) | 16.9 µM (inactive) | 27.1 µM (inactive) | 19.3 µM (inactive) | 30.3 µM (inactive) | 31.8 µM (inactive) | 18.4 µM (inactive) | 21.8 µM (inactive) | 11.6 µM (inactive) | 34.9 µM (inactive) | 25.3 µM (inactive) | 23 µM (inactive) | 19.1 µM (inactive) | 12.9 µM (inactive) | 32.7 µM (inactive) | 31.4 µM (inactive) |
| COc1cc2c(cc1OC)C1Cc3ccccc3CN1CCC2 (stereo not drawn) | > 100 µM (inactive) | > 100 µM (inactive) | > 100 µM (inactive) | 92.9 µM (inactive) | 93.1 µM (inactive) | > 100 µM (inactive) | > 100 µM (inactive) | 90.6 µM (inactive) | > 100 µM (inactive) | > 100 µM (inactive) | 88.3 µM (inactive) | > 100 µM (inactive) | > 100 µM (inactive) | > 100 µM (inactive) | > 100 µM (inactive) | > 100 µM (inactive) | > 100 µM (inactive) | > 100 µM (inactive) |
| CC(=O)NC1CONC1=O (stereo not drawn) | > 100 µM (inactive) | > 100 µM (inactive) | > 100 µM (inactive) | > 100 µM (inactive) | > 100 µM (inactive) | > 100 µM (inactive) | > 100 µM (inactive) | > 100 µM (inactive) | > 100 µM (inactive) | > 100 µM (inactive) | > 100 µM (inactive) | > 100 µM (inactive) | > 100 µM (inactive) | > 100 µM (inactive) | > 100 µM (inactive) | > 100 µM (inactive) | > 100 µM (inactive) | > 100 µM (inactive) |
| COc1ccc(/C=C/C(=O)Oc2ccccc2OC)cc1 | 14 µM (inactive) | > 46.1 µM (inactive) | 8 µM (inactive) | > 48.2 µM (inactive) | 41.7 µM (inactive) | 9.04 µM (inactive) | 56.9 µM (inactive) | > 96.6 µM (inactive) | 33 µM (inactive) | 27.8 µM (inactive) | 9.59 µM (inactive) | 23.6 µM (inactive) | 26.5 µM (inactive) | > 51.5 µM (inactive) | 30.7 µM (inactive) | > 100 µM (inactive) | 13.9 µM (inactive) | 37.4 µM (inactive) |
| O=C(c1ccccc1)C1C(c2ccccc2[N+](=O)[O-])N1C1CCCCC1 (stereo not drawn) | 1.99 µM (inactive) | 3.44 µM (inactive) | 15.1 µM (inactive) | 3.5 µM (inactive) | 10.3 µM (inactive) | 11.9 µM (inactive) | 12.4 µM (inactive) | 17 µM (inactive) | 16.4 µM (inactive) | 6.05 µM (inactive) | 9.33 µM (inactive) | 17 µM (inactive) | 1.86 µM (inactive) | 4.27 µM (inactive) | 11 µM (inactive) | 22.1 µM (inactive) | 4.39 µM (inactive) | 6.01 µM (inactive) |
| COC(=O)C1(C(=O)OC)CC2=C(S(=O)(=O)c3ccccc3)C[C@H](C#N)[C@H]2C1 | > 100 µM (inactive) | > 100 µM (inactive) | > 100 µM (inactive) | 69.8 µM (inactive) | > 100 µM (inactive) | > 100 µM (inactive) | > 100 µM (inactive) | > 100 µM (inactive) | > 100 µM (inactive) | > 100 µM (inactive) | > 100 µM (inactive) | > 100 µM (inactive) | > 100 µM (inactive) | > 100 µM (inactive) | > 100 µM (inactive) | > 100 µM (inactive) | > 100 µM (inactive) | > 100 µM (inactive) |
| COc1cc(C2c3cc4c(cc3OC3(OC)COC(=O)C23)OCO4)cc(OC)c1OC (stereo not drawn) | 0.353 µM (active) | 0.568 µM (active) | 0.48 µM (active) | 3.22 µM (inactive) | 0.355 µM (active) | 0.129 µM (active) | 0.605 µM (active) | 0.649 µM (active) | 0.389 µM (active) | 0.128 µM (active) | 4.85 µM (inactive) | 3.66 µM (inactive) | 0.332 µM (active) | 0.142 µM (active) | 0.292 µM (active) | 0.348 µM (active) | 0.478 µM (active) | 0.377 µM (active) |
| COc1cc2c(cc1OCCCCN1CCN(CCCCOc3cc4c(cc3OC)C(=O)N3CCC[C@H]3C=N4)CC1)N=C[C@@H]1CCCN1C2=O | < 0.014 µM (active) | 0.0318 µM (active) | 0.0236 µM (active) | < 0.01 µM (active) | 0.0608 µM (active) | 0.0628 µM (active) | 0.031 µM (active) | < 0.01 µM (active) | < 0.0241 µM (active) | 1.94 µM (inactive) | 0.0776 µM (active) | 0.0417 µM (active) | < 0.0172 µM (active) | 0.0676 µM (active) | 0.0138 µM (active) | 4.45 µM (inactive) | < 0.01 µM (active) | 0.0167 µM (active) |
| CCOC(=O)C(=[N+]=[N-])C(=O)C1(C(=O)OCC)CCN(C(=O)c2ccccc2)C1=O (stereo not drawn) | > 100 µM (inactive) | > 100 µM (inactive) | > 100 µM (inactive) | > 100 µM (inactive) | > 100 µM (inactive) | > 100 µM (inactive) | > 100 µM (inactive) | > 100 µM (inactive) | > 100 µM (inactive) | > 100 µM (inactive) | > 100 µM (inactive) | > 100 µM (inactive) | > 100 µM (inactive) | > 100 µM (inactive) | > 100 µM (inactive) | > 100 µM (inactive) | > 100 µM (inactive) | – |
| CC1(C)C(=O)N(O)C(C)(C)N1O | > 10 µM (inactive) | > 10 µM (inactive) | > 10 µM (inactive) | > 10 µM (inactive) | > 10 µM (inactive) | > 10 µM (inactive) | > 10 µM (inactive) | > 10 µM (inactive) | > 10 µM (inactive) | > 10 µM (inactive) | > 10 µM (inactive) | > 10 µM (inactive) | > 10 µM (inactive) | > 10 µM (inactive) | > 10 µM (inactive) | > 10 µM (inactive) | > 10 µM (inactive) | > 10 µM (inactive) |
| CCOP(C)(=O)C(N)Cc1ccc(OC)c(OC)c1 (stereo not drawn) | > 100 µM (inactive) | > 100 µM (inactive) | > 100 µM (inactive) | > 100 µM (inactive) | > 100 µM (inactive) | – | > 100 µM (inactive) | > 100 µM (inactive) | > 100 µM (inactive) | > 100 µM (inactive) | > 100 µM (inactive) | – | > 100 µM (inactive) | > 100 µM (inactive) | > 100 µM (inactive) | > 100 µM (inactive) | > 100 µM (inactive) | > 100 µM (inactive) |
| O=C(NCc1ccccc1)c1cnc(Cl)cn1 | > 100 µM (inactive) | 16.2 µM (inactive) | – | 13.7 µM (inactive) | 43.2 µM (inactive) | > 100 µM (inactive) | 34.3 µM (inactive) | > 100 µM (inactive) | 23.3 µM (inactive) | 16.6 µM (inactive) | 16.7 µM (inactive) | – | 52.4 µM (inactive) | > 100 µM (inactive) | 54 µM (inactive) | > 100 µM (inactive) | > 100 µM (inactive) | 48.2 µM (inactive) |
| CNC(=O)Nc1cc2c3c(c1)CCCN3CCC2 | > 10 µM (inactive) | > 10 µM (inactive) | > 10 µM (inactive) | > 10 µM (inactive) | > 10 µM (inactive) | > 10 µM (inactive) | > 10 µM (inactive) | > 10 µM (inactive) | > 10 µM (inactive) | > 10 µM (inactive) | > 10 µM (inactive) | > 10 µM (inactive) | > 10 µM (inactive) | > 10 µM (inactive) | > 10 µM (inactive) | > 10 µM (inactive) | > 10 µM (inactive) | > 10 µM (inactive) |
| Cc1nc(O)nc2nc3ccc(Cl)cc3c(N(CCO)CCO)c12 | > 100 µM (inactive) | 96.2 µM (inactive) | > 100 µM (inactive) | > 100 µM (inactive) | 10.7 µM (inactive) | 40 µM (inactive) | > 100 µM (inactive) | 26.8 µM (inactive) | > 100 µM (inactive) | > 100 µM (inactive) | 18.4 µM (inactive) | > 100 µM (inactive) | > 100 µM (inactive) | 73.6 µM (inactive) | > 100 µM (inactive) | > 100 µM (inactive) | > 100 µM (inactive) | > 100 µM (inactive) |
| Cn1cnc([N+](=O)[O-])c1[Se]c1ncnc2nc[nH]c12 | 10.4 µM (inactive) | 0.925 µM (active) | 12 µM (inactive) | 12.2 µM (inactive) | 3.7 µM (inactive) | 5.69 µM (inactive) | 3.72 µM (inactive) | 10.5 µM (inactive) | 17.3 µM (inactive) | 2.07 µM (inactive) | 3.32 µM (inactive) | 11.4 µM (inactive) | 8.79 µM (inactive) | 15.5 µM (inactive) | 1.66 µM (inactive) | 15.4 µM (inactive) | 11.7 µM (inactive) | 4.6 µM (inactive) |
| C/C(=N\Nc1nc2ccccc2o1)c1cc2ccccc2cn1 | < 0.01 µM (active) | < 0.01 µM (active) | 0.14 µM (active) | < 0.0208 µM (active) | 0.237 µM (active) | 0.0346 µM (active) | < 0.01 µM (active) | < 0.0208 µM (active) | < 0.0187 µM (active) | < 0.01 µM (active) | 0.0906 µM (active) | 0.225 µM (active) | < 0.01 µM (active) | 0.946 µM (active) | 0.0101 µM (active) | 0.0474 µM (active) | < 0.01 µM (active) | < 0.0215 µM (active) |
